Read-outs that look alike come from different tables or passages of the source.
How the values were obtained:
[1] = Hemostatic parameters, plasmatic and whole blood assays (thrombelastography)
Procedure: Studies were performed to assess the effect of Calxinin on hemostatic parameters using plasmatic and whole blood assays.

[2] = tested on: P. berghei ookinete (Pb-GFPcon); experiment: In vitro ookinete inhibition assay; type: cell-based, Plasmodium berghei
Procedure: [3] In vitro Ookinete inhibition assay of Calxinin. To determine whether Compound I (Calxinin) is blocking the growth of the transmission stage of malaria GFP-expressing P. berghei ANKA constitutively (Pb-GFPcon), which expresses the GFP during all the developmental stages, was used during in vitro experiments. Compound I (Calxinin) was tested in nanomolar range for its ability to inhibit ookinete development. Early gametocyte stage was maintained in vitro by incubating in ookinete media containing Xanthrunic acid and various other nutrients (complete DMEM) and pH 8.0. For the inhibition assay, culture plates containing Calxinin at different concentrations were incubated for about 24 h at 19° C. on a shaker and in the dark. After 24 h, ookinete development was checked by generating blood smears from the cultures. Smears were fixed, stained with Giemsa and counted in a NIKON 80i microscope.
Example 13—In-vitro Ookinete inhibition assay Encouraged with notable potency against symptomatic asexual blood stage, liver stage, and gametocidal activity, transmission blocking efficacy of Compound I (Calxinin) was evaluated against ookinete. […] As the concentration of Compound I increases, the percentage of healthy parasite is reduced and the % of deformed parasite increases (FIG. 7B).

[3] = tested on: Field isolates from Kenya (P. falciparum infected blood); experiment: Screening against freshly collected field isolates; type: cell-based; conditions: Plasmodium falciparum
primary and human cells = experiment: Cell cytotoxicity assays in primary and human cells (summary statements); type: cell-based
Procedure: PBMC were isolated from healthy donors using the Ficoll-Paque™ technique (GE Healthcare Bioscience AB, Uppsala, Sweden) from donor leukopack samples obtained from LUMC blood bank services. […] Robust cells at a concentration of 80,000 cells/ml were plated into 96-well plates and incubated for 24 hours. Cell viability and proliferation was determined by use of both MTT and Cell Titer Glo@ assays for both cell types. MTT assay was conducted by addition of 10 μL MTT solution (5 mg/mL) into each well, incubated for 4 hour at 37° C. followed by addition of 50 μL DMSO to dissolve the formazan precipitate according to the manufacturer's protocol. Aliquots were drawn from each well and color intensity was measured spectrophotometrically in SpectraMax® M5 Multi-Mode Microplate Reader.
In addition, the cell viability of Huh 7 and HEK293 cells was evaluated post drug exposure using the Alamar Blue assay [Riss, Terry L., et al. “Cell viability assays.” Assay Guidance Manual [Intenet]. […] Cells (1×10/well) were exposed to varying concentrations of test compounds, for 24 hours in 96-well plate format along with 10/100 μL Alamar Blue solution (10×=4.8 mM in phosphate buffer) per well.

[4] = tested on: P. berghei ANKA sporozoites; experiment: Liver-stage infection in mice by mosquito bites, treatment and survival; type: in vivo
Procedure: [1] Liver-stage infection in mice, treatment and survival assay: GFP-expressing P. berghei ANKA were grown in Anopheles stephensi mosquitoes in the insectary at National Institute of Immunology (New Delhi, India). Sporozoite count per salivary gland and infectivity was determined before the experimental infection of mice by the mosquito bites. Briefly, anaesthetized mice were exposed to a cage of sporozoite carrying starved mosquitoes (100 mosquito/5 mouse) for 15 minutes with intermittent disturbing of mosquito every 2-3 minute in order to encourage biting and injection of more sporozoite. Biting was done at 22+1° C. and dark condition maintained in an incubator. First dose (10 mg/Kg) was given 24 hours before the infection, second dose was given two hours post sporozoite challenge (biting) drug was given intraperitonially (I.P). Remaining dosages were given 24 h post challenge.
[2] For calculating parasite load, liver of experimental mice were isolated 50 h post infection. Mice were anesthetized, abdominal area sterilized with 70% ethanol and liver dissected out. Liver was homogenized in precold denaturating solution. RNAs were isolated from the homogenized sample followed by Real Time polymerase chain reaction (PCR).
Prompted by the notable in vitro liver stage activity, mice were infected with sporozoites through mosquito bites to test the efficacy of Compound I on liver stage infection in mouse models. The infected mice were treated with fixed dose of 10 mg/kg for three days. Liver stage P. berghei parasites mature into merozoites in about 55 hours. […] To understand the pre-patient period and delay, the starting of blood stage parasite infection was monitored after three days post challenge by observing Giemsa stained smears. […] Single day delay in blood stage infection corresponds to about 10-fold decrease in liver parasite burden. Experimental mice were kept for survival studies after treatment with Compound 1 (10 mg/kg) and death day was noted.
The percentage of parasitemia remained low until day 7 post-sporozoite challenges.

[5] = In vitro cytotoxicity, HEK293 (Alamar Blue); type: cell-based; conditions: human, HEK293 cells; read-out: CC50 (50% cell toxicity)
Procedure: In addition, the cell viability of Huh 7 and HEK293 cells was evaluated post drug exposure using the Alamar Blue assay [Riss, Terry L., et al. “Cell viability assays.” Assay Guidance Manual [Intenet]. Eli Lilly & Company and the National Centre for Advancing Translational Sciences, 2016]. Cells ([…]) were exposed to varying concentrations of test compounds, for 24 hours in 96-well plate format along with 10/100 μL Alamar Blue solution (10×=4.8 mM in phosphate buffer) per well. […] Results from the cytotoxicity assays were expressed as CC50 at which 50% of the cells died/metabolically slowed down due to drug exposure compared to the non-treated and vehicular control.
The cytotoxicity of Compound I was tested by exposing peripheral blood mononuclear cells (PBMCs) to drug concentrations corresponding to averages of both Pf3D7 and PfDd2 IC50 values. This was intended to establish whether the observed antiparasitic effects of the compounds were due to non-specific inhibitory activity. […] The IC50 required for killing the parasite is <90 nM. Therefore, in order to be toxic for human cells we have to use over 650 fold concentration.

[6] = tested on: P. falciparum CQ-resistant (PfDd2); experiment: SYBR Green I assay, asynchronous cultures, CQ-resistant clone; type: cell-based; conditions: Plasmodium falciparum

## NC(Cc1ccccc1)C(O)CN1CCN(Cc2ccc(C(F)(F)F)cc2)CC1 (stereo not shown) [Compound I]
[1]
  anticoagulant effect (hemostatic parameters): no adverse impact
[1]; up to 20 μg/ml
  clot formation by thrombelastography: did not impact clot formation
[2]; 450 nanomolar
  ookinete morphology: deformed and retarded Ookinete
[2]; Plasmodium berghei, 24 h, 19° C.
  IC50: ~150 nM
[3]; read-out: Field isolates from Kenya IC50, nM (±SD)
  IC50: 50 nM
[3]; read-out: IC50 against freshly collected field isolates of P. falciparum infected blood
  IC50: 643 nM
Primary and human cells
  toxicity to HEK293, Huh 7.1, HepG2 and PBMCs: did not show any toxicity
Primary and human cells; primary and human cells
  concentration up to which no toxicity was seen: > 30 µM
[4]; 10 mg/kg
  Mean survival time (MST): about 9 days
  decrease in liver parasite burden corresponding to the delay: about 10 fold
  delay in the prepatent period: One day's delay
[4]; 10 mg/kg for three days, I.P
  inhibition of liver stage infection in mice: 30%
[5]
  CC50 at 24 h: 60.2 µM
[6]; 72 h, read-out: PfDd2 IC50, nM (±SD)
  IC50: 88 nM
[6]; DD2, read-out: IC50 against asexual stages, drug resistant (CQ-resistant) DD2
  IC50: 88 nM
[6]; read-out: mean half maximal inhibitory concentration (IC50) for PfDd2
  IC50: 88 nM

Reference: patent US11485714B2, “Hydroxyethylamine-based piperazine compounds, and methods of producing and using the same for treating disease” (National Institute of Immunology, priority 2020, dated 2022)
